Measured values published in paper PMC10288505, “Photoswitchable Calixarene Activators for Controlled Peptide Transport across Lipid Membranes” (Journal of the American Chemical Society, 2023).

How the values were obtained:
[1] = Photochemical characterisation (UV–vis absorption, 1H NMR) and thermal Z→E isomerization; assay type: physicochemical
Description: The photochromic properties of 1 and 2 were investigated in diluted aqueous solution by UV–vis absorption spectroscopy and in CD3OD by ^1H NMR.
On the other hand, irradiation of the Z-forms at λirr = 500 nm originates a photostationary state (PSS) composed of 70 and 80% of E-1 (Φ1Z → E = 0.6) and E-2 (Φ2Z → E = 0.5), respectively (Figure 1 and Figure S23). As generally observed for other azobenzene photoswitches,[42] the E isomers can be quantitatively recovered in the dark through the thermal Z → E isomerization, with 1 and 2 presenting activation energies of 215 and 93 kJ/mol, respectively (Figures S24 and S25).

[2] = Carboxyfluorescein (CF) dye efflux assay, counterion-activated peptide transport; assay type: biochemical; conditions: for CF transport out of the liposomes on addition of peptide alone: peptide 4 µM, no activator, LUV 15 µM lipid with 50 mM CF encapsulated
Description: Dynamic light scattering (DLS) control experiments also confirmed liposome integrity under the experimental conditions employed in the different membrane transport assays, which ruled out potential membrane disruption interferences (Figure S34). Established dye efflux assays were performed using the carboxyfluorescein (CF) dye encapsulated at self-quenching concentrations in egg phosphatidylcholine large unilamellar vesicles (EYPC-LUV⊃CF).[26],[27],[29],[45] In these experiments, the fractional release of trapped CF (or fractional transport activity, Y), triggered by the addition of counterion activators and peptides, is monitored by time-resolved fluorescence spectroscopy and calibrated by the addition of Triton X-100 (Figure S35).
The studies were performed with both 1 and 2 in the E and Z configurations in the presence of fixed concentrations of liposomes and cationic peptides. […] Likewise, the addition of peptides alone or nonbinding anionic peptides in the presence of calixarene activators also results in unmodified fluorescence signal, confirming that the formation of the calixarene–peptide complex is critical to activate the transport process. […] This approach retrieves the Ymax (i.e., maximal CF release relative to liposome lysis after the addition of Triton X-100) and EC50 (i.e., the effective counterion activator concentration required to reach Ymax/2) as the relevant parameters to measure the efficiency of the counterion activators.
10 mg of L-α-phosphatidylcholine (95%) (Egg, Chicken) were dissolved in 1 ml of chloroform. The solution was evaporated under a nitrogen stream, under rotation, to form a thin lipid film in the bottom of the flask. This film was left to dry under vacuum for a minimum of 1h. After drying the maximum of the solvent from the solution, 1 ml of the solution to incorporate (CF 50 mM in 5 mM phosphate buffer for EYPC-LUV⊃CF and only phosphate buffer 5 mM pH 7.4, for the LUVs with no encapsulation) was added to the thin film and the lipids were left to resuspend under agitation, in a 40 °C bath, for 30 min. The resuspended lipid mixture was then submitted to 10 freeze-thaw cycles and extruded 23 times through a 100 nm membrane, to obtain uniform, monodisperse liposomes with high encapsulation of the added solution. The liposomes were then separated from the molecules that were not encapsulated by size-exclusion chromatography, with Sephadex G25 (V = 37 ml), obtaining two fractions, one with high turbidity and a clear one, corresponding to the encapsulated and free sensor, respectively. The samples were then analyzed by Dynamic Light Scattering (DLS) to determine the average size of the liposomes in solution and their size distribution.
All assays were done up to 48h after the preparation of the vesicles to ensure their integrity and majority of CF still encapsulated.
EC50 and Ymax calculation. For the measurement of 1 and 2’s effectiveness as a counterion activators of polyarginine transport, dye efflux assays were executed at several counterion activator concentrations, while maintaining the concentration of peptide and LUV fixed as indicated in the respective figures.
For the dye efflux assays, CF emission was followed throughout the assay, with consecutive additions of the elements of the solution – the initial solution presented only the vesicles at a fixed concentration. A counterion activator aliquot is then added according to the concentration to be tested and the emission is measured to confirm that CF remains encapsulated; some counterion activators can act as detergents at sufficient concentrations. Finally, the peptide in question is added and fluorescence spectra are measured […]
until the emission stabilizes and a maximum of release is reached. If the counterion activator has the capacity to activate the transport, CF should be co-transported to the exterior of the liposome with the influx of the counterion-peptide complex. Finally, Triton X-100 is added to the solution to dissolve the […]

R3 = experiment: Indicator displacement assay with host:LCG reporter pair, guest R3; assay type: binding; conditions: association constant, competitive dye displacement with LCG, 5 mM phosphate buffer pH 7.3, mean ± SD of triplicate
Description: (§1) The binding affinity of the anionic calixarene activators toward cationic peptides was investigated using a small library of highly hydrophilic oligoarginines, from 3 to 8 residues. These peptides are not able to spontaneously transverse zwitterionic artificial membranes in vesicle assays, which allows the accurate evaluation of the calixarenes 1 and 2 as counterion activators without interferences from the transport of the peptide alone.[43]−[45] First, the formation of host–guest complexes between 1/2 and the selected peptides was verified by indicator displacement assays using lucigenin (LCG) as the fluorescent indicator.[46] As previously reported for other sulfonatocalixarene derivatives,[46] the formation of host–guest binding pairs between calixarenes 1/2 in the E- and Z-forms and LCG results in significant static fluorescence quenching (see Figure 2A and Figures S26 and S27). Quantitative analysis of the fluorescence titration data using a 1:1 host:guest binding model allows the determination of the respective binding constants (K) reported in Table 1. As can be observed, both 1/2 display high affinity for the LCG dye, on the 10^7 M^–1 range, which seems to be independent of the nature and conformation of the azobenzene arm. […] The host:LCG binding pairs were then employed in the above-mentioned indicator displacement assays to investigate the binding affinity of oligoarginines toward 1 and 2 (see Figure 2B and Figures S29–S33).
(§2) The binding affinities of the counterion activators and peptide complexes were analyzed by indicator displacement assays. The fluorescent dye chosen for these experiments was lucigenin (LCG) due to its complex with the receptor SC4 being well characterized and due to the high variation of emission between its bound and free form. Firstly, the affinity for LCG was calculated for each of the activators, by titrations followed by fluorescence spectroscopy leading to almost full quenching of the emission. For the competitive assays, a concentration of LCG and activator was chosen in order to have approximately 90% of complexed dye and that mixture was then titrated with each of the peptides, leading to the regaining of emission when LCG was release from the complex.
(§3) Figure S26 - Fluorescence titration of the lucigenin dye with increasing concentrations of A) E-1 and B) Z–1 in water (5 mM phosphate buffer pH 7.3). LCG concentration was fixed 0.2 µM in all experiments, except for the first E-1 titrations were [LCG]
(§4) (1 picture or pasted object on this page, not shown here)
(§5) Figure S29 - Indicator displacement titration of the several oligoarginines A) R3 B) R4 C) R6 and D) R8, using SC4:LCG as the reporter pair (5 mM phosphate buffer pH 7.3). LCG and SC4 concentrations were fixed at A) 0.22 and 0.50 µM, for all three replicates, B) 0.22 and 4.7 µM for the first titration and 0.22 and 4.3 µM for the remaining two replicates, C) 0.22 and 0.45 µM and 1.1 and 0.85 µM and D) 0.28 and 0.43 µM and 1.1 and 0.85 µM, respectively, from left to right.
(§6) Figure S30 - Indicator displacement titration of the several oligoarginines A) R3 B) R4 C) R6 and D) R8, using E-1:LCG as the reporter pair (5 mM phosphate buffer pH 7.3) LCG and E-1 concentrations were fixed at A) 0.11 and 0.25 µM, for all three replicates, B) 0.22 and 0.5 µM, for the first two titrations and 0.22 and 0.23 µM for the remaining replicate, C) 4.0 and 3.8 µM and 0.22 and 0.5 µM, D) 4 and 3 µM and 0.22 and 0.5 µM, respectively, from left to right. […]

R8 = experiment: Indicator displacement assay with host:LCG reporter pair, guest R8; assay type: binding; conditions: association constant, competitive dye displacement with LCG, 5 mM phosphate buffer pH 7.3; only the lower limit can be estimated
Description: as §1
(§7) The binding affinities of the counterion activators and peptide complexes were analyzed by indicator displacement assays. […] Firstly, the affinity for LCG was calculated for each of the activators, by titrations followed by fluorescence spectroscopy leading to almost full quenching of the emission. […]
(§8) Figure S26 - Fluorescence titration of the lucigenin dye with increasing concentrations of A) E-1 and B) Z–1 in water (5 mM phosphate buffer pH 7.3). […]

hexaarginine (R6) = experiment: Indicator displacement assay with host:LCG reporter pair, guest R6; assay type: binding; conditions: association constant, competitive dye displacement with LCG, 5 mM phosphate buffer pH 7.3; only the lower limit can be estimated
Description: as §1
Figure 2 (A) Fluorescence titration of the lucigenin dye (LCG, 1.5 μM) with increasing concentrations of E-2 in water (5 mM phosphate buffer, pH 7.3). […]
as §7, §8

R4 = experiment: Indicator displacement assay with host:LCG reporter pair, guest R4; assay type: binding; conditions: association constant, competitive dye displacement with LCG, 5 mM phosphate buffer pH 7.3, mean ± SD of triplicate
Description: as §1, §2, §3, §4, §5, §6

CCCCc1ccc(N=Nc2ccc(OCCCOc3c4cc(S(=O)(=O)[O-])cc3Cc3cc(S(=O)(=O)[O-])cc(c3O)Cc3cc(S(=O)(=O)[O-])cc(c3O)Cc3cc(S(=O)(=O)[O-])cc(c3O)C4)cc2)cc1.[Li+].[Li+].[Li+].[Li+] [compound 2]
Activation energy of thermal Z → E isomerization ([1]; in the dark): 22.2 kcal/mol | Conversion of the E isomer into the Z-form ([1]; irradiation at 366 nm): quantitative conversion | Photoisomerization quantum yield Φ E → Z ([1]; irradiation at 366 nm, diluted aqueous solution): 0.4 | Photoisomerization quantum yield Φ Z → E ([1]; irradiation at 500 nm): 0.5 | CF fluorescence signal (vesicle leakage) on addition of counterion activator alone ([2]; in the absence of peptides, EYPC-LUV⊃CF): does not affect the intensity of the fluorescence signal

N=C(N)NCCC[C@H](NC(=O)[C@H](CCCNC(=N)N)NC(=O)[C@H](CCCNC(=N)N)NC(=O)[C@H](CCCNC(=N)N)NC(=O)[C@H](CCCNC(=N)N)NC(=O)[C@@H](N)CCCNC(=N)N)C(N)=O [R6, hexaarginine, reference compound]
CF transport out of the liposomes on addition of peptide alone [2]: did not activate the transport of CF

N=C(N)NCCC[C@H](NC(=O)[C@H](CCCNC(=N)N)NC(=O)[C@H](CCCNC(=N)N)NC(=O)[C@H](CCCNC(=N)N)NC(=O)[C@H](CCCNC(=N)N)NC(=O)[C@H](CCCNC(=N)N)NC(=O)[C@H](CCCNC(=N)N)NC(=O)[C@@H](N)CCCNC(=N)N)C(N)=O [R8, reference compound]
CF transport out of the liposomes on addition of peptide alone [2]: did not activate the transport of CF

O=S(=O)(O)c1cc2c(O)c(c1)Cc1cc(S(=O)(=O)O)cc(c1O)Cc1cc(S(=O)(=O)O)cc(c1O)Cc1cc(S(=O)(=O)O)cc(c1O)C2 [SC4, sulfonatocalix[4]arene, reference compound]
Apparent affinity constant K for R3 (R3): (5.5 ± 0.3) × 10^6 M^–1 | Apparent affinity constant K for R8 (R8): >1 × 10^9 ^a M^–1 | Apparent affinity constant K for R6 (hexaarginine (R6)): >1 × 10^9 ^a M^–1 | Apparent affinity constant K for R4 (R4): (2.7 ± 0.4) × 10^8 M^–1
